The text below walks through data of BindingDB's records for patent US12565504 (Biogen Ma, 2026).

The structures appear in SMILES notation.

The assay addresses T1, Protein O-GlcNAcase (Homo sapiens, UniProt O60502).
T1 sequence (O60502 whole entry): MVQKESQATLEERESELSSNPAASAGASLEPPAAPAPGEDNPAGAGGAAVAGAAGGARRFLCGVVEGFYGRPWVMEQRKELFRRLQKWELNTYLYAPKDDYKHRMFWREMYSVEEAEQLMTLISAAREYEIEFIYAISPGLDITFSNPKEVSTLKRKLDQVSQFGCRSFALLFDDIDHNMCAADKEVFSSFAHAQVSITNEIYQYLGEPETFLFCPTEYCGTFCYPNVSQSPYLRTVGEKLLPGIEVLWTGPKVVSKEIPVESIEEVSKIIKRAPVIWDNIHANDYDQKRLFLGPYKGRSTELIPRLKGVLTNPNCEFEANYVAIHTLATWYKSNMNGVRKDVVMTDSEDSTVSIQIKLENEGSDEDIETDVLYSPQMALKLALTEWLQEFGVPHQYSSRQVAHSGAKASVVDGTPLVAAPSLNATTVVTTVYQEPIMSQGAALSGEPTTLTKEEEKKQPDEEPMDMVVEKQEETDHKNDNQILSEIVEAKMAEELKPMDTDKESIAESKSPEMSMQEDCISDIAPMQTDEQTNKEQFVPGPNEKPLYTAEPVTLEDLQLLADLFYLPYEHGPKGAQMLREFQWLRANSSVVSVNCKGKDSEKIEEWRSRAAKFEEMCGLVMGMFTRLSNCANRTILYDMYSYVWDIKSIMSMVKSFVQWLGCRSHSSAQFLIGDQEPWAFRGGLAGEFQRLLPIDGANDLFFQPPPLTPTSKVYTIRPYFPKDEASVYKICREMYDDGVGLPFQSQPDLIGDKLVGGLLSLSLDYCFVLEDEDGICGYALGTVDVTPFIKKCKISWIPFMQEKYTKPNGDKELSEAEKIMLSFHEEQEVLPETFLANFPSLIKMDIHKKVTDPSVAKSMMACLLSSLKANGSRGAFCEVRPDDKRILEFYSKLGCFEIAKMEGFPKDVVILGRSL
The assay can be described thus: OGA Enzyme Inhibition Biochemical Assay. Here is the method:
Recombinant full length human OGA enzyme was purchased from Origene. 4-MUGlcNAc substrate was purchased from Sigma. All other reagents were purchased from Sigma or Fisher. Assay buffer consists of the McIlvaine buffer system, pH 6.4 (0.2M Na2HPO4 mixed with 0.1M citric acid) and 0.01% BSA. […] Reactions were incubated for 90 minutes at room temperature and quenched with 40 μl of 3M glycine, pH 10 and read on a Perkin Elmer Envision plate reader (Ex: 355 nm/Em: 460 nm). Compounds were tested with a 10-point dose-response starting from 20 μM with a 4-fold dilution. Data was fit using GraphPad Prism using a 4-parameter fit with variable slope.
In turn, `COc1cc2c(cn1)[C@]1(C[C@H](C)N(Cc3sc(NC(C)=O)nc3F)C1)OC2` (single isomer, unassigned) [US12565504, Example 75-a] came in with an IC50 of 10 nM. This counts as double-digit nanomolar. Turning to `COc1cc2c(cn1)[C@@]1(C[C@H](C)N(Cc3sc(NC(C)=O)nc3F)C1)OC2` (single isomer, unassigned) [US12565504, Example 75-b], the IC50 is 47 nM. As for `COc1nccc2c1COC21C[C@H](C)N(Cc2sc(NC(C)=O)nc2F)C1` (some centres undefined) [US12565504, Example 77], the figure is 4 nM. In the case of `CC(=O)Nc1nc(F)c(CN2CC3(C[C@@H]2C)OCc2ncccc23)s1` (some centres undefined) [US12565504, Example 79], the IC50 is 10 nM.
